Experimental data: ChEMBL document CHEMBL3745645, “Synthesis, in vitro antitumor activity, dihydrofolate reductase inhibition, DNA intercalation and structure-activity relationship studies of 1,3,5-triazine analogues” (Bioorg Med Chem Lett, 2016)
Active and inactive are the calls of the source. The calls are words filed in the database; no cut-off is given here.

Experiments:
Format in all cases: functional
[1] = Cytotoxicity against human Caki1 cells at 10 uM after 48 hrs by SRB assay; conditions: CAKI-1, 48 h, read-out: GI
[2] = test system: RXF 393; experiment: Cytotoxicity against human RXF393 cells at 10 uM after 48 hrs by SRB assay
[3] = test system: SN12C; experiment: Cytotoxicity against human SN12C cells at 10 uM after 48 hrs by SRB assay; conditions: read-out: GI
[4] = test system: TK-10; experiment: Cytotoxicity against human TK10 cells at 10 uM after 48 hrs by SRB assay
[5] = Cytotoxicity against human UO31 cells at 10 uM after 48 hrs by SRB assay; conditions: UO-31, 48 h, read-out: GI
[6] = Cytotoxicity against human PC3 cells at 10 uM after 48 hrs by SRB assay; conditions: PC-3, 48 h, read-out: GI
[7] = test system: DU-145; experiment: Cytotoxicity against human DU145 cells at 10 uM after 48 hrs by SRB assay
[8] = test system: MCF7; experiment: Cytotoxicity against human MCF7 cells at 10 uM after 48 hrs by SRB assay; conditions: MCF7, 48 h, read-out: GI
[9] = test system: MDA-MB-231; experiment: Cytotoxicity against human MDA-MB-231 cells at 10 uM after 48 hrs by SRB assay; conditions: MDA-MB-231, 48 h, read-out: GI
[10] = Cytotoxicity against human Hs 578T cells at 10 uM after 48 hrs by SRB assay; conditions: read-out: GI
[11] = Cytotoxicity against human BT549 cells at 10 uM after 48 hrs by SRB assay; conditions: BT-549, 48 h, read-out: GI
[12] = test system: T47D; experiment: Cytotoxicity against human T47D cells at 10 uM after 48 hrs by SRB assay; conditions: read-out: GI
[13] = test system: MDA-MB-468; experiment: Cytotoxicity against human MDA-MB-468 cells at 10 uM after 48 hrs by SRB assay; conditions: MDA-MB-468, 48 h, read-out: GI
[14] = test system: CCRF-CEM; experiment: Cytotoxicity against human CCRF-CEM cells at 10 uM after 48 hrs by SRB assay; conditions: read-out: GI
[15] = test system: HL-60(TB); experiment: Cytotoxicity against human HL-60(TB) cells at 10 uM after 48 hrs by SRB assay
[16] = test system: K562; experiment: Cytotoxicity against human K562 cells at 10 uM after 48 hrs by SRB assay; conditions: K562, 48 h, read-out: GI
[17] = Cytotoxicity against human MOLT4 cells at 10 uM after 48 hrs by SRB assay; conditions: MOLT-4, 48 h, read-out: GI
[18] = Cytotoxicity against human RPMI8226 cells at 10 uM after 48 hrs by SRB assay; conditions: RPMI-8226, 48 h, read-out: GI
[19] = test system: SR; experiment: Cytotoxicity against human SR cells at 10 uM after 48 hrs by SRB assay; conditions: read-out: GI
[20] = test system: A549; experiment: Cytotoxicity against human A549 cells at 10 uM after 48 hrs by SRB assay; conditions: A549, 48 h, read-out: GI
[21] = Cytotoxicity against human HOP62 cells at 10 uM after 48 hrs by SRB assay; conditions: HOP-62, 48 h, read-out: GI
[22] = Cytotoxicity against human HOP92 cells at 10 uM after 48 hrs by SRB assay; conditions: HOP-92, 48 h, read-out: GI
[23] = test system: NCI-H226; experiment: Cytotoxicity against human NCI-H226 cells at 10 uM after 48 hrs by SRB assay; conditions: NCI-H226, 48 h, read-out: GI
[24] = test system: NCI-H460; experiment: Cytotoxicity against human NCI-H460 cells at 10 uM after 48 hrs by SRB assay
[25] = test system: NCI-H522; experiment: Cytotoxicity against human NCI-H522 cells at 10 uM after 48 hrs by SRB assay; conditions: NCI-H522, 48 h, read-out: GI
[26] = Cytotoxicity against human COLO205 cells at 10 uM after 48 hrs by SRB assay; conditions: COLO 205, 48 h, read-out: GI
[27] = test system: HCC 2998; experiment: Cytotoxicity against human HCC2998 cells at 10 uM after 48 hrs by SRB assay
[28] = Cytotoxicity against human HCT116 cells at 10 uM after 48 hrs by SRB assay; conditions: HCT-116, 48 h, read-out: GI
[29] = Cytotoxicity against human HCT15 cells at 10 uM after 48 hrs by SRB assay; conditions: HCT-15, 48 h, read-out: GI
[30] = test system: HT-29; experiment: Cytotoxicity against human HT-29 cells at 10 uM after 48 hrs by SRB assay; conditions: HT-29, 48 h, read-out: GI
[31] = test system: KM12; experiment: Cytotoxicity against human KM12 cells at 10 uM after 48 hrs by SRB assay
[32] = Cytotoxicity against human SW620 cells at 10 uM after 48 hrs by SRB assay; conditions: SW-620, 48 h, read-out: GI
[33] = Cytotoxicity against human SF268 cells at 10 uM after 48 hrs by SRB assay; conditions: SF-268, 48 h, read-out: GI
[34] = Cytotoxicity against human SF295 cells at 10 uM after 48 hrs by SRB assay; conditions: SF-295, 48 h, read-out: GI
[35] = Cytotoxicity against human SF539 cells at 10 uM after 48 hrs by SRB assay; conditions: SF-539, 48 h, read-out: GI
[36] = Cytotoxicity against human SNB19 cells at 10 uM after 48 hrs by SRB assay; conditions: SNB-19, 48 h, read-out: GI
[37] = Cytotoxicity against human SNB75 cells at 10 uM after 48 hrs by SRB assay; conditions: SNB-75, 48 h, read-out: GI
[38] = test system: U-251; experiment: Cytotoxicity against human U251 cells at 10 uM after 48 hrs by SRB assay
[39] = Cytotoxicity against human LOXIMVI cells at 10 uM after 48 hrs by SRB assay; conditions: LOX IMVI, read-out: GI
[40] = test system: Malme-3M; experiment: Cytotoxicity against human MALME-3M cells at 10 uM after 48 hrs by SRB assay
[41] = test system: M14; experiment: Cytotoxicity against human M14 cells at 10 uM after 48 hrs by SRB assay
[42] = test system: MDA-MB-435; experiment: Cytotoxicity against human MDA-MB-435 cells at 10 uM after 48 hrs by SRB assay; conditions: MDA-MB-435, 48 h, read-out: GI
[43] = test system: SK-MEL-2; experiment: Cytotoxicity against human SK-MEL-2 cells at 10 uM after 48 hrs by SRB assay
[44] = test system: SK-MEL-28; experiment: Cytotoxicity against human SK-MEL-28 cells at 10 uM after 48 hrs by SRB assay
[45] = test system: SK-MEL-5; experiment: Cytotoxicity against human SK-MEL-5 cells at 10 uM after 48 hrs by SRB assay; conditions: SK-MEL-5, 48 h, read-out: GI
[46] = Cytotoxicity against human UACC257 cells at 10 uM after 48 hrs by SRB assay; conditions: UACC-257, 48 h, read-out: GI
[47] = Cytotoxicity against human UACC62 cells at 10 uM after 48 hrs by SRB assay; conditions: UACC-62, 48 h, read-out: GI
[48] = Cytotoxicity against human IGROV1 cells at 10 uM after 48 hrs by SRB assay; conditions: IGROV-1, 48 h, read-out: GI
[49] = Cytotoxicity against human OVCAR3 cells at 10 uM after 48 hrs by SRB assay; conditions: OVCAR-3, 48 h, read-out: GI
[50] = Cytotoxicity against human OVCAR4 cells at 10 uM after 48 hrs by SRB assay; conditions: OVCAR-4, 48 h, read-out: GI
[51] = Cytotoxicity against human OVCAR5 cells at 10 uM after 48 hrs by SRB assay; conditions: OVCAR-5, 48 h, read-out: GI
[52] = Cytotoxicity against human OVCAR8 cells at 10 uM after 48 hrs by SRB assay; conditions: OVCAR-8, 48 h, read-out: GI
[53] = Cytotoxicity against human NCI-ADR-RES cells at 10 uM after 48 hrs by SRB assay; conditions: read-out: GI
[54] = test system: SK-OV-3; experiment: Cytotoxicity against human SKOV3 cells at 10 uM after 48 hrs by SRB assay
[55] = test system: 786-0; experiment: Cytotoxicity against human 786-0 cells at 10 uM after 48 hrs by SRB assay; conditions: 786-0, 48 h, read-out: GI
[56] = test system: A498; experiment: Cytotoxicity against human A498 cells at 10 uM after 48 hrs by SRB assay; conditions: A498, 48 h, read-out: GI
[57] = test system: ACHN; experiment: Cytotoxicity against human ACHN cells at 10 uM after 48 hrs by SRB assay; conditions: read-out: GI

Cc1nc2cc(Nc3nc(Nc4ccc(F)cc4)nc(Nc4ccc(F)cc4)n3)ccc2n1Cc1ccccc1
inhibition of growth at 10 µM [1]: 10.1%
growth inhibition (GI) [2]: inactive
inhibition of growth at 10 µM [3]: 5.75%
growth inhibition (GI) [4]: inactive
inhibition of growth at 10 µM [5]: 39.3%
inhibition of growth at 10 µM [6]: 23.2%
growth inhibition (GI) [7]: inactive
inhibition of growth at 10 µM [8]: 11.5%
inhibition of growth at 10 µM [9]: 24.5%
inhibition of growth at 10 µM [10]: 10.4%
inhibition of growth at 10 µM [11]: 5.26%
inhibition of growth at 10 µM [12]: 10.7%
inhibition of growth at 10 µM [13]: 9.45%
inhibition of growth at 10 µM [14]: 10.6%
growth inhibition (GI) [15]: inactive
inhibition of growth at 10 µM [16]: 18.6%
inhibition of growth at 10 µM [17]: 15.2%
inhibition of growth at 10 µM [18]: 14.3%
inhibition of growth at 10 µM [19]: 18.6%
inhibition of growth at 10 µM [20]: 8.48%
inhibition of growth at 10 µM [21]: 8.91%
inhibition of growth at 10 µM [22]: 37.6%
inhibition of growth at 10 µM [23]: 13.8%
growth inhibition (GI) [24]: inactive
inhibition of growth at 10 µM [25]: 14.2%
inhibition of growth at 10 µM [26]: 2.84%
growth inhibition (GI) [27]: inactive
inhibition of growth at 10 µM [28]: 12.2%
inhibition of growth at 10 µM [29]: 10.8%
inhibition of growth at 10 µM [30]: 1.3%
growth inhibition (GI) [31]: inactive
inhibition of growth at 10 µM [32]: 3.96%
inhibition of growth at 10 µM [33]: 3.68%
inhibition of growth at 10 µM [34]: 8.21%
inhibition of growth at 10 µM [35]: 10.4%
inhibition of growth at 10 µM [36]: 3.99%
inhibition of growth at 10 µM [37]: 24.8%
growth inhibition (GI) [38]: inactive
inhibition of growth at 10 µM [39]: 7.8%
growth inhibition (GI) [40]: inactive
growth inhibition (GI) [41]: inactive
inhibition of growth at 10 µM [42]: 0.94%
growth inhibition (GI) [43]: inactive
growth inhibition (GI) [44]: inactive
inhibition of growth at 10 µM [45]: 1.09%
inhibition of growth at 10 µM [46]: 3.11%
inhibition of growth at 10 µM [47]: 10.2%
inhibition of growth at 10 µM [48]: 16.9%
inhibition of growth at 10 µM [49]: 4.79%
inhibition of growth at 10 µM [50]: 14.4%
inhibition of growth at 10 µM [51]: 4.24%
inhibition of growth at 10 µM [52]: 9.21%
inhibition of growth at 10 µM [53]: 10.6%
growth inhibition (GI) [54]: inactive
inhibition of growth at 10 µM [55]: 13.2%
inhibition of growth at 10 µM [56]: 21.9%
inhibition of growth at 10 µM [57]: 7.88%
